In ChEMBL document CHEMBL1134122, “Substituted indole-5-carboxamides and -acetamides as potent nonpeptide GnRH receptor antagonists” (Bioorg Med Chem Lett, 2001):

What was measured:
[1] = biological target: T1, Gonadotropin-releasing hormone receptor (Rattus norvegicus, UniProt P30969); test: Inhibition GnRH-stimulated luteinizing hormone (LH) release from rat pituitary cells; format: functional, cell-based, Pituitary gland cell
T1 sequence (P30969 whole entry): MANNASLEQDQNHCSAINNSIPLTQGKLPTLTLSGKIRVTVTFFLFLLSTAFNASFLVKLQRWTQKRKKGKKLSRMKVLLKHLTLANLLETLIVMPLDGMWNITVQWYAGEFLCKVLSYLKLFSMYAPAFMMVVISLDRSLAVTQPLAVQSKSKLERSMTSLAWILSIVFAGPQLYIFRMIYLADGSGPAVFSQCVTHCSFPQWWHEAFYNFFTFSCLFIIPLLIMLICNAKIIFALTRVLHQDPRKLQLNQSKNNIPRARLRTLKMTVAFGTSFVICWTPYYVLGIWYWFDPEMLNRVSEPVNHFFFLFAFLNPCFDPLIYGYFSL

[2] = biological target: T1, Gonadotropin-releasing hormone receptor; test: Inhibition of [125I]buserelin binding to rat pituitary Gonadotropin-releasing hormone receptor, in the absence of bovine serum albumin (BSA)
[3] = biological target: T1, Gonadotropin-releasing hormone receptor; test: Inhibition of [125I]buserelin binding to rat pituitary Gonadotropin-releasing hormone receptor, in the presence of 0.1% bovine serum albumin.

IC50 [1] [nM]	IC50 [2] [nM]	IC50 [3] [nM]	SMILES
42	2	0.2	CCN(CC)C(=O)C(C)(C)c1ccc2[nH]c(-c3cc(C)cc(C)c3)c(CCNCCCCc3ccc(NS(C)(=O)=O)cc3)c2c1
800	4	–	Cc1cc(C)cc(-c2[nH]c3ccc(C(=O)N4CCOCC4)cc3c2CCNCCCCc2ccc(O)cc2)c1
65	3	0.2	Cc1cc(C)cc(-c2[nH]c3ccc(C(C)(C)C(=O)N4C(C)CCC4C)cc3c2CCNCCCCc2ccc(NS(C)(=O)=O)cc2)c1 (stereo not given)
140	5	–	CCCN(CCC)C(=O)c1ccc2[nH]c(-c3cc(C)cc(C)c3)c(CCNCCCCc3ccc(NS(C)(=O)=O)cc3)c2c1
690	2	–	Cc1cc(C)cc(-c2[nH]c3ccc(C(=O)N(C)C)cc3c2CCNCCCCc2ccc(NS(C)(=O)=O)cc2)c1
160	3	0.1	Cc1cc(C)cc(-c2[nH]c3ccc(C(C)(C)C(=O)N(C)C)cc3c2CCNCCCCc2ccc(NS(C)(=O)=O)cc2)c1
320	2	0.1	Cc1cc(C)cc(-c2[nH]c3ccc(CC(=O)N(C)C)cc3c2CCNCCCCc2ccc(NS(C)(=O)=O)cc2)c1
400	2	0.2	Cc1cc(C)cc(-c2[nH]c3ccc(C(=O)N4CCOCC4)cc3c2CCNCCCCc2ccc(NS(C)(=O)=O)cc2)c1
220	2	–	Cc1cc(C)cc(-c2[nH]c3ccc(C(=O)N4CCCCC4)cc3c2CCNCCCCc2ccc(NS(C)(=O)=O)cc2)c1
270	2	0.2	CCN(CC)C(=O)c1ccc2[nH]c(-c3cc(C)cc(C)c3)c(CCNCCCCc3ccc(NS(C)(=O)=O)cc3)c2c1
240	4	–	CCCCN(CC)C(=O)c1ccc2[nH]c(-c3cc(C)cc(C)c3)c(CCNCCCCc3ccc(NS(C)(=O)=O)cc3)c2c1
81	–	0.12	Cc1cc(C)cc(-c2[nH]c3ccc(C(C)(C)C(=O)N4CCOCC4)cc3c2CCNCCCCc2ccc(NS(C)(=O)=O)cc2)c1
–	32	–	CCOC(=O)c1ccc2[nH]c(-c3cc(C)cc(C)c3)c(CCNCCCCc3ccc(O)cc3)c2c1
> 6200	14	–	CCOC(=O)c1ccc2[nH]c(-c3cc(C)cc(C)c3)c(CCNCCCCc3ccc(NS(C)(=O)=O)cc3)c2c1
40	2	0.2	Cc1cc(C)cc(-c2[nH]c3ccc(C(C)(C)C(=O)N4CCCC4)cc3c2CCNCCCCc2ccc(NS(C)(=O)=O)cc2)c1
210	3	0.4	Cc1cc(C)cc(-c2[nH]c3ccc(C(=O)N4C5CCC4CC5)cc3c2CCNCCCCc2ccc(NS(C)(=O)=O)cc2)c1

Continued, molecule first:

SMILES	IC50 [1] [nM]	IC50 [2] [nM]	IC50 [3] [nM]
Cc1cc(C)cc(-c2[nH]c3ccccc3c2CCNCCCCc2ccc(O)cc2)c1	> 6200	–	–
Cc1cc(C)cc(-c2[nH]c3ccc(C(=O)N4C(C)CCC4C)cc3c2CCNCCCCc2ccc(NS(C)(=O)=O)cc2)c1 (stereo not given)	95	3	0.2
CCOC(=O)Cc1ccc2[nH]c(-c3cc(C)cc(C)c3)c(CCNCCCCc3ccc(NS(C)(=O)=O)cc3)c2c1	2000	2	–
Cc1cc(C)cc(-c2[nH]c3ccc(C(=O)N(CC(C)C)CC(C)C)cc3c2CCNCCCCc2ccc(NS(C)(=O)=O)cc2)c1	32	–	0.4
CCCN(CCC)C(=O)C(C)(C)c1ccc2[nH]c(-c3cc(C)cc(C)c3)c(CCNCCCCc3ccc(NS(C)(=O)=O)cc3)c2c1	70	5	0.4
CCOC(=O)C(C)(C)c1ccc2[nH]c(-c3cc(C)cc(C)c3)c(CCNCCCCc3ccc(NS(C)(=O)=O)cc3)c2c1	150	3	0.3
CCOC(=O)C(C)c1ccc2[nH]c(-c3cc(C)cc(C)c3)c(CCNCCCCc3ccc(NS(C)(=O)=O)cc3)c2c1 (stereo not given)	610	4	0.5
CCN(CC)C(=O)c1ccc2[nH]c(-c3cc(C)cc(C)c3)c(CCNCCCCc3ccc(O)cc3)c2c1	540	6	0.5
Cc1cc(C)cc(-c2[nH]c3ccc(C(=O)NCc4ccccc4)cc3c2CCNCCCCc2ccc(O)cc2)c1	–	24	–
CCN(CC)C(=O)C(C)c1ccc2[nH]c(-c3cc(C)cc(C)c3)c(CCNCCCCc3ccc(NS(C)(=O)=O)cc3)c2c1 (stereo not given)	130	2	0.2
Cc1cc(C)cc(-c2[nH]c3ccc(C(=O)N(C(C)C)C(C)C)cc3c2CCNCCCCc2ccc(NS(C)(=O)=O)cc2)c1	72	3	0.3
Cc1cc(C)cc(-c2[nH]c3ccc(C(=O)N(CC(C)C)CC(C)C)cc3c2CCNCCCCc2ccc(O)cc2)c1	380	–	–
CCNC(=O)c1ccc2[nH]c(-c3cc(C)cc(C)c3)c(CCNCCCCc3ccc(NS(C)(=O)=O)cc3)c2c1	2400	6	–
Cc1cc(C)cc(-c2[nH]c3ccc(OC(=O)N(C)C)cc3c2CCNCCCCc2ccc(O)cc2)c1	–	3	–
Cc1cc(C)cc(-c2[nH]c3ccc(C(=O)N4CCCC4)cc3c2CCNCCCCc2ccc(NS(C)(=O)=O)cc2)c1	510	4	0.2
CCN(C(=O)c1ccc2[nH]c(-c3cc(C)cc(C)c3)c(CCNCCCCc3ccc(NS(C)(=O)=O)cc3)c2c1)C(C)(C)C	660	–	0.8
CCN(C(=O)c1ccc2[nH]c(-c3cc(C)cc(C)c3)c(CCNCCCCc3ccc(NS(C)(=O)=O)cc3)c2c1)C(C)C	120	3	–
CCN(CC)C(=O)Cc1ccc2[nH]c(-c3cc(C)cc(C)c3)c(CCNCCCCc3ccc(NS(C)(=O)=O)cc3)c2c1	130	3	0.2
Cc1cc(C)cc(-c2[nH]c3ccc(CC(=O)N4C(C)CCC4C)cc3c2CCNCCCCc2ccc(NS(C)(=O)=O)cc2)c1 (stereo not given)	95	3	0.1
Cc1cc(C)cc(-c2[nH]c3ccc(C(=O)N(C)C)cc3c2CCNCCCCc2ccc(O)cc2)c1	820	5	–
